We go through one compound from the NIST ThermoML archive (doi:10.1021/acs.jced.9b00696).

Numbers after ± are expanded uncertainties.

For data set [1] the following is noted: Crystal; DSC.
Data set [2] is described as follows: Molar enthalpy of transition or fusion. To be noted: Crystal; DSC.

Turning to `C[C@]12CCC3=C4CCC(=O)C=C4CC[C@H]3[C@@H]1CC[C@@]2(O)CC#N` [dienogest], in data set [1], the Triple point temperature is reported as 485.01 ± 0.81 K. In addition, the “Molar enthalpy of transition or fusion” value in data set [2] came out at 30.2 ± 1.4 kJ/mol.
